Data on three molecules can be found in ChEMBL document CHEMBL4342498, “Design and Discovery of an Orally Efficacious Spiroindolinone-Based Tankyrase Inhibitor for the Treatment of Colon Cancer” (J Med Chem, 2020).

Values after ≈ are worked out from the molar mass of the structure shown.

For the first series, the target named is T1, Poly [ADP-ribose] polymerase tankyrase-2 (Homo sapiens, UniProt Q9H2K2).
T1 sequence (Q9H2K2 whole entry): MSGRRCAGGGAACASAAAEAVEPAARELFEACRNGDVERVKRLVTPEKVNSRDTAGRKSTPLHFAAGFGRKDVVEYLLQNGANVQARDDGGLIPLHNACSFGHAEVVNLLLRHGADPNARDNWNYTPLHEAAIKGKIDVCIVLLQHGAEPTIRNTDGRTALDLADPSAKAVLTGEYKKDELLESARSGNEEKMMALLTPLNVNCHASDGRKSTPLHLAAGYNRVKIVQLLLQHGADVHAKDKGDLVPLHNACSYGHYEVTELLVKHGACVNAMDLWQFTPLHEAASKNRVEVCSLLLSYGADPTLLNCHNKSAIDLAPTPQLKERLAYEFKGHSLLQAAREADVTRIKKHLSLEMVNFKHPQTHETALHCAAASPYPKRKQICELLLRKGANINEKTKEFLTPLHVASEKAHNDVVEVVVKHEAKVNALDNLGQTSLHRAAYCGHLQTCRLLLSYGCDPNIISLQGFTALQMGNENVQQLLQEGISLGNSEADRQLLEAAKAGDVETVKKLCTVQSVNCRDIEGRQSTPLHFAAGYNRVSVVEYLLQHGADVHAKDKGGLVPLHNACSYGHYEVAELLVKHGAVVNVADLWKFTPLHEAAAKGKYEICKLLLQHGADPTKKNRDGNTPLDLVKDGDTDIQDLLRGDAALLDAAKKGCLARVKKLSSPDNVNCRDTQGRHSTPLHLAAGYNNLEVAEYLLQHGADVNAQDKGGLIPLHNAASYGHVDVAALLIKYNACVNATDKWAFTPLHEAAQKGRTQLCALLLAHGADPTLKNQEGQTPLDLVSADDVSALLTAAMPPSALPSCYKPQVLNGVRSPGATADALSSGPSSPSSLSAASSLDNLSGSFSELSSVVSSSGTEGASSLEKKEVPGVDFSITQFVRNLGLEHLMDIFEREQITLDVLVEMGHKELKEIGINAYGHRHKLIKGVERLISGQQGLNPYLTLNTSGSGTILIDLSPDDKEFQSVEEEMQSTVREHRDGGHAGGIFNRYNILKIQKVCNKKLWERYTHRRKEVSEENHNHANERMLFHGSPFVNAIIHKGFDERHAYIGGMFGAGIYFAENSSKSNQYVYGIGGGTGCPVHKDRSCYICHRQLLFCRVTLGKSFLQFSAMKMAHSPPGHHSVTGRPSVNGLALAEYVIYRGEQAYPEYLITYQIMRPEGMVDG
Nature of the series: Inhibition of recombinant human N-terminal TEV cleavage site-fused/FLAG-poly his-tagged TNKS2 ARC5-SAM-PARP domain (613 to 1166 residues) expressed in Escherichia coli assessed as reduction in auto-PARylation preincubated for 10 mins followed by biotinylated-NAD+ addition and measured after 45 mins by ELISA.
Settings: not given
For orientation: An ELISA detects its analyte on a solid surface through an enzyme-linked reagent.
`Cn1ccc2c(=O)[nH]c(N3CCC4(CC3)C(=O)N(CCO)c3cc(F)cc(F)c34)nc21`: the 50% inhibitory concentration (IC50) amounted to 10.2 nM.
Same read-out and setting: as for `CN1CCCc2c1nc(N1CCC3(CC1)C(=O)N(C)c1cc(OCCN4CCCCC4)cc(F)c13)[nH]c2=O`, the figure is 33.3 nM.
`CN(C)CCOc1cc(F)c2c(c1)N(C)C(=O)C21CCN(c2nc3c(c(=O)[nH]2)CCCN3C)CC1`: the IC50 was 11.1 nM.

The test system of a further series is COLO 320DM. Nature of the series: Antiproliferative activity against human COLO320DM cells assessed as inhibition of cell growth measured after 4 days by CellTiter-Glo assay. The note with it: 96 h. The class given is functional. (In general: In ATP-based viability assays light output follows the ATP content of the culture.)
Consider `Cn1ccc2c(=O)[nH]c(N3CCC4(CC3)C(=O)N(CCO)c3cc(F)cc(F)c34)nc21`, for which the GI50 is greater than 20000 nM.
On the same count and under the same terms, as for `CN1CCCc2c1nc(N1CCC3(CC1)C(=O)N(C)c1cc(OCCN4CCCCC4)cc(F)c13)[nH]c2=O`, the figure is 1090 nM; as for `CN(C)CCOc1cc(F)c2c(c1)N(C)C(=O)C21CCN(c2nc3c(c(=O)[nH]2)CCCN3C)CC1`, 810 nM.

Tested on in the next series: not listed separately
Nature of the series: Stability in mouse liver microsomes assessed as parent compound remaining at 1 uM measured after 60 mins in presence of NADPH by LC-MS/MS analysis. The class given is ADME, Microsome. The note with it: read-out: Stability.
`CN1CCCc2c1nc(N1CCC3(CC1)C(=O)N(C)c1cc(OCCN4CCCCC4)cc(F)c13)[nH]c2=O`: the remaining at 1 h, 1 µM amounted to 56%.
Still for that read-out and setting: as for `CN(C)CCOc1cc(F)c2c(c1)N(C)C(=O)C21CCN(c2nc3c(c(=O)[nH]2)CCCN3C)CC1`, the figure is 83.7%.

Tested on in the next series: not listed separately
Nature of the series: Stability in human liver microsomes assessed as parent compound remaining at 1 uM measured after 60 mins in presence of NADPH by LC-MS/MS analysis. The format is ADME, Microsome. The conditions noted are these: read-out: Stability. On the technique in general: Liver microsomes are a subcellular fraction often used to study metabolism.
Consider `CN1CCCc2c1nc(N1CCC3(CC1)C(=O)N(C)c1cc(OCCN4CCCCC4)cc(F)c13)[nH]c2=O`, for which the remaining at 1 h, 1 µM was 18.5%.
Same read-out and setting: as for `CN(C)CCOc1cc(F)c2c(c1)N(C)C(=O)C21CCN(c2nc3c(c(=O)[nH]2)CCCN3C)CC1`, the figure is 54.4%.

For another series, the system named is MDR1. Nature of the series: Efflux ratio of permeability across basolateral to apical side over apical to basolateral side in MDCK2-MDR1 cells. The class given is ADME, cell-based, Canis lupus familiaris. The conditions noted are these: dog, MDCK-MDR1.
For `CN1CCCc2c1nc(N1CCC3(CC1)C(=O)N(C)c1cc(OCCN4CCCCC4)cc(F)c13)[nH]c2=O`, the efflux ratio was 6.1.
`CN(C)CCOc1cc(F)c2c(c1)N(C)C(=O)C21CCN(c2nc3c(c(=O)[nH]2)CCCN3C)CC1`: the efflux ratio stood at 22.7.

Tested on in a further series: not listed separately
Nature of the series: Efflux ratio of permeability across basolateral to apical side over apical to basolateral side in MDCK2 cells. The format is ADME, cell-based, Canis lupus familiaris, MDCK-II. The conditions noted are these: dog, mdck.
Consider `CN1CCCc2c1nc(N1CCC3(CC1)C(=O)N(C)c1cc(OCCN4CCCCC4)cc(F)c13)[nH]c2=O`, for which the efflux ratio is 3.2.
Same read-out and setting: as for `CN(C)CCOc1cc(F)c2c(c1)N(C)C(=O)C21CCN(c2nc3c(c(=O)[nH]2)CCCN3C)CC1`, the figure is 9.2.

Tested on in another series: not listed separately
Nature of the series: Net efflux ratio of permeability across basolateral to apical side over apical to basolateral side in MDCK2-MDR1 cells to MDCK2 cells. The format is ADME, cell-based, Canis lupus familiaris. The note with it: dog, mdck.
Take `CN1CCCc2c1nc(N1CCC3(CC1)C(=O)N(C)c1cc(OCCN4CCCCC4)cc(F)c13)[nH]c2=O`: the Ratio turned out to be 1.9.
Same read-out and setting: as for `CN(C)CCOc1cc(F)c2c(c1)N(C)C(=O)C21CCN(c2nc3c(c(=O)[nH]2)CCCN3C)CC1`, the figure is 2.5.

A further series addresses T2, Poly [ADP-ribose] polymerase tankyrase-1 (Homo sapiens, UniProt O95271).
T2 sequence (O95271 whole entry): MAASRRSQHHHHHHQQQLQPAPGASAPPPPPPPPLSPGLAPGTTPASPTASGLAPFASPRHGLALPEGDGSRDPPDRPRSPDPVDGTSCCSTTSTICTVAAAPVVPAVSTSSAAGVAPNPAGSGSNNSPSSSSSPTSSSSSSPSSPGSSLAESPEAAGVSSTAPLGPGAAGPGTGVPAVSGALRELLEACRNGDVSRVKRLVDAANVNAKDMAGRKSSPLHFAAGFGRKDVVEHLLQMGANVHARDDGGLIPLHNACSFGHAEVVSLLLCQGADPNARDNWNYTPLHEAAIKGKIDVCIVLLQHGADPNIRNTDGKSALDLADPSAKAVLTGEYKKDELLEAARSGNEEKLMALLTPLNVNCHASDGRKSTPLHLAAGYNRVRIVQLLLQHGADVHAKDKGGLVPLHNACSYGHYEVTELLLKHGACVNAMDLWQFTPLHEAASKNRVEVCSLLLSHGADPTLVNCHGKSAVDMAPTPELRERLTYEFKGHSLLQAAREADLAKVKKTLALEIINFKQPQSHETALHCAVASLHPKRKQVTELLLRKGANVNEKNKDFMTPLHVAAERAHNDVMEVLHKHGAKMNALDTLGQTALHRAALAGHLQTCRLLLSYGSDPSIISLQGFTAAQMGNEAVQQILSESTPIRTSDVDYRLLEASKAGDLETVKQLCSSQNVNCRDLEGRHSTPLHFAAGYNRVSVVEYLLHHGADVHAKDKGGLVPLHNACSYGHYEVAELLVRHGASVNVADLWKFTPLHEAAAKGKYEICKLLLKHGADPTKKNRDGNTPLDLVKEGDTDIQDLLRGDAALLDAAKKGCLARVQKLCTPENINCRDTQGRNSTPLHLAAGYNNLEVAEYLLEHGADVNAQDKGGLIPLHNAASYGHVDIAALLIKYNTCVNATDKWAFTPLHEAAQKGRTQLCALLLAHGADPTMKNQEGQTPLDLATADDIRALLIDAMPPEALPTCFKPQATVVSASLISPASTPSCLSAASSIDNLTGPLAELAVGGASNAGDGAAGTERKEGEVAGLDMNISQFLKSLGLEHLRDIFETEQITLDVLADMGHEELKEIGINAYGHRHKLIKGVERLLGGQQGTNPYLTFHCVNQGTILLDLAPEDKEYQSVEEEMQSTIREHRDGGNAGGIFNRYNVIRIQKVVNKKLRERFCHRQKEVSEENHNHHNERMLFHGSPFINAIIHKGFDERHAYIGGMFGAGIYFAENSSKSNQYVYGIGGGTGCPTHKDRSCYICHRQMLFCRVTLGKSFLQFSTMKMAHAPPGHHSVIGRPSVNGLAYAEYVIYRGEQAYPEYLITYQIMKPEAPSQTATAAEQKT
Test: not given
Settings: not given
`Cn1ccc2c(=O)[nH]c(N3CCC4(CC3)C(=O)N(CCO)c3cc(F)cc(F)c34)nc21` came in with an IC50 of 4.5 nM.
The molecule `CN1CCCc2c1nc(N1CCC3(CC1)C(=O)N(C)c1cc(OCCN4CCCCC4)cc(F)c13)[nH]c2=O` yielded an IC50 of 12 nM.
The same measure, in the same setting: as for `CN(C)CCOc1cc(F)c2c(c1)N(C)C(=O)C21CCN(c2nc3c(c(=O)[nH]2)CCCN3C)CC1`, the figure is 4.9 nM.

The next series addresses T3, Tankyrase 1/2 (Homo sapiens, UniProt Q9H2K2+O95271).
T3 sequence (Q9H2K2 whole entry): T1 sequence (Q9H2K2 whole entry)
T3 sequence (O95271 whole entry): T2 sequence (O95271 whole entry)
Test: not given
The conditions noted are these: hek293.
With `Cn1ccc2c(=O)[nH]c(N3CCC4(CC3)C(=O)N(CCO)c3cc(F)cc(F)c34)nc21`, the IC50 is reported as 1.5 nM.
The same measure, in the same setting: as for `CN1CCCc2c1nc(N1CCC3(CC1)C(=O)N(C)c1cc(OCCN4CCCCC4)cc(F)c13)[nH]c2=O`, the figure is 2.5 nM; as for `CN(C)CCOc1cc(F)c2c(c1)N(C)C(=O)C21CCN(c2nc3c(c(=O)[nH]2)CCCN3C)CC1`, 0.3 nM.

The target of the next series is T3, Tankyrase 1/2.
Test: not given
Settings: not given
For `Cn1ccc2c(=O)[nH]c(N3CCC4(CC3)C(=O)N(CCO)c3cc(F)cc(F)c34)nc21`, the half-inhibitory concentration (IC50) is reported as 6.3 nM.
Same read-out and setting: as for `CN1CCCc2c1nc(N1CCC3(CC1)C(=O)N(C)c1cc(OCCN4CCCCC4)cc(F)c13)[nH]c2=O`, the figure is 5 nM; as for `CN(C)CCOc1cc(F)c2c(c1)N(C)C(=O)C21CCN(c2nc3c(c(=O)[nH]2)CCCN3C)CC1`, 6.1 nM.

Tested on in a further series: not listed separately
Nature of the series: physchem. The note with it: phosphate buffered saline, pH 7.4.
The molecule `CN1CCCc2c1nc(N1CCC3(CC1)C(=O)N(C)c1cc(OCCN4CCCCC4)cc(F)c13)[nH]c2=O` showed a solubility at 1 h, 200 µM of 101 µg/mL (≈ 192 µM).
On the same count and under the same terms, as for `CN(C)CCOc1cc(F)c2c(c1)N(C)C(=O)C21CCN(c2nc3c(c(=O)[nH]2)CCCN3C)CC1`, the figure is 95 µg/mL (≈ 196 µM).

One may read the IC50 as the concentration needed to halve the response being measured. As usually defined, the GI50 is the concentration at which growth is held to half of that of the control. One may read the efflux ratio as a quotient of directional permeabilities that is used to spot active efflux. The term solubility denotes how much of the substance goes into solution per volume. Read a low solubility as little dissolved substance.
